These results are taken from a melting point compilation (Tetko et al.; mined from patent text by program, amines drawn as free bases though some values may be those of a salt).

The term melting point denotes the temperature of the solid-liquid transition.

The structures appear in SMILES notation.

In turn, `CCOC(=O)Cc1nsc2ccc([N+](=O)[O-])cc12` showed a melting point of 91 to 92 °C. The result for `C=CCNC(=O)C1CCc2cc(Cl)ccc2O1` (stereo not given) reads 112 to 114 °C; that for `Clc1cccc2c1Oc1ccccc1N=C2N1CCN2CCC[C@H]2C1`, 150 to 151 °C.

With `CCn1nnc(-c2cccc(-c3ccnc4c(-c5cc(C)cc(C)c5)cnn34)c2)n1`, the melting point came out at 65 °C.

In turn, `CS(=O)(=O)c1cccc(NC(=O)c2cnn3c(C(F)(F)F)cc(-c4ccc(C(F)(F)F)c(Cl)c4)nc23)c1` displayed a melting point of 268 °C. The molecule `CN1CCOc2ccc(/C=C/C(=O)O)cc21` registered a melting point of 190 °C. With `CC(C)CCOc1c(-c2ccc(S(C)(=O)=O)cc2)cnn(CC(F)(F)F)c1=O` the figure was 111 to 113 °C. The result for `COc1ccc(C(=O)OC2C=C(C)C(=O)CC(C)(C)C2O)cc1` (stereo not given) reads 108 to 110 °C; that for `CC(=O)Nc1ccc(S(=O)(=O)Nc2nc(=O)n(C3CC3)cc2C)cc1`, 176 to 181 °C; that for `CC1=C(C)CC2C(C1)C(=O)NS2=O` (stereo not given), 135 to 137 °C. The result for `Clc1ccc2nc3n(c2c1)CCC3` reads 136 °C; that for `CCC(CC)(CCl)c1cc(Cl)nnc1Cl`, 45 to 47 °C; that for `COC(C)=CC(=O)NC1CCCCCC1`, 120 °C. In turn, `COc1cc(-c2nc3ccc(OCCN(C(C)C)C(C)C)cc3n2Cc2ccccc2C(F)(F)F)cc(OC)c1OC` registered a melting point of 184 °C. The result for `N#CSCc1ccc(C(=O)c2ccc(Cl)cc2)cc1` reads 129 to 131 °C. As to `CCCCOCCOc1ccc(-c2ccc3c(c2)C=C(C(=O)Nc2ccc(N(C)Cc4nncn4CCC)cc2)CCN3CC(C)C)cc1`, the melting point lay within 134 to 136 °C. The result for `O=C(Nc1nnn[nH]1)c1c[nH]c(=S)n1C1CCc2c(F)cc(F)cc2C1` (stereo not given) reads 228 to 230 °C; that for `CCC1(CC)c2cc(N)ccc2-c2ccc(-c3nc4ccccc4s3)cc21`, 206 to 207 °C; that for `CCC1Cc2cc(C(C)C(=O)O)ccc2O1` (stereo not given), 70 to 72 °C.

For `Cc1cccc2c1CCC2NC(=S)NCCO` (stereo not given), the melting point was in the range of 90 to 93 °C.

Take `O=C(O)COc1ccc(NC(=O)OCc2ccccc2)cc1`: the melting point was in the range of 152 to 154 °C. With `CCN(CC)C(=O)c1cc(-c2ccc(OC)cc2)c2ccsc2c1` the figure was 88 °C; with `CCC(NC(=O)CC(F)(F)F)c1ccc(Cl)c2nc3n(c12)CCCN3c1ccc(Cl)cc1Cl` (stereo not given), 285 to 290 °C. The result for `O=C1CC(c2ccc(-c3ccc(OCc4ccc(Br)cc4)cc3)cc2)Cc2ccccc21` (stereo not given) reads 191 °C.

Consider `COCc1c[nH]c2c([N+](=O)[O-])cccc2c1=O`, for which the melting point was over 250 °C. The molecule `Cc1cc(-n2ccnc2)c2cccc(OCc3c(Cl)ccc(S(=O)(=O)N4CCC[C@H]4C(=O)N4CCN(Cc5cccnc5)CC4)c3Cl)c2n1` registered a melting point of 102 °C. The result for `Cc1ccc(N2CCN(CCCc3[nH]nc4c3CCC4)CC2)cc1` reads 101 to 102 °C.

`O=C(NC(=O)c1c(F)cccc1F)Nc1cc(C(F)(F)F)cc(C(F)(F)F)n1`: the melting point was determined as 152 °C.

The molecule `CCCC1=C(C#N)C(c2cccc(C#N)c2Cl)c2c[nH]nc2N1` (stereo not given) returned a melting point of over 250 °C. The result for `COc1ccc(-c2c(-c3cc(OC)c(OC)c(OC)c3)ncn2-c2cc(OC)c(OC)c(OC)c2)cc1O` reads 154 to 156 °C; that for `NC(=S)NC[C@H]1CN(c2ccc(N3CCOCC3)c(F)c2)C(=O)O1`, 199 to 200 °C; that for `O=[N+]([O-])c1cccc(C2C3=C(CCCS3)NC3=C2SCCC3)c1`, over 260 °C. With `COc1cccc(/C=C/C2=CCN(Cc3nc4ccccc4[nH]3)CC2)c1` the figure was 202 to 204 °C; with `Nc1cc(-n2cccn2)nc(-c2ccc(Cl)o2)n1`, 210 to 211 °C; with `CC(=O)NCCCc1nc2cnc3ccc(C)cc3c2n1C`, 213 to 215 °C.

The molecule `CCCN1C(=O)N2CCN=C2c2c1ncn2C` yielded a melting point of 110 to 112 °C. With `COc1cc(C(=O)CCC(=O)c2cc(OC)c(OC)c(OC)c2)cc(I)c1OCc1ccccc1` the figure was 134 to 135 °C; with `Cc1nc(-c2ccc(I)cc2)no1`, 121 to 122 °C. With `O=S(=O)(c1ccc(F)cc1)C(F)(F)C(F)(F)C(F)(F)C(F)(F)S(=O)(=O)c1ccc(F)cc1` the figure was 126 to 127 °C; with `Cc1cccc2c(Nc3cccc(OCCCCN(CCCl)CCCl)c3)c3cccc(C(=O)NCCN(C)C)c3nc12`, 131 to 132 °C. With `Cn1cc(-c2cc3cccnc3[nH]2)c2cc(OCCO)ccc21` the figure was 209 to 210 °C. `CNC(=O)c1ccccc1Nc1nc(Nc2ccc3c(c2)N(C)CCN(S(C)(=O)=O)C3)ncc1Cl` came in with a melting point of 200 to 207 °C.

On to `COc1ccc(C2Nc3ccc(Cl)cc3C(C#CC3CC3)(C(F)(F)F)O2)cc1OC` (stereo not given), for which the melting point was in the range of 172 to 175 °C.

As to `O=Cc1ccc2c(n1)COC(c1ccccc1)O2` (stereo not given), the melting point lay within 110 to 114 °C. The result for `CC(=O)NCc1c(C)cc(CO)cc1C` reads 194 °C; that for `Cc1ccc(-c2ccc3c(c2)C=C(C(=O)Nc2ccc(CN(C)C4CCOCC4)cc2)CCO3)s1`, 129 to 130 °C; that for `COC(=O)Cc1cc(C)c(C(=O)c2ccc(Cl)cc2)n1C`, 122 to 125 °C. With `O=S(=O)(c1ccc(Oc2ccccc2)cc1)N1CC1` the figure was 136 to 138 °C; with `COc1ccc(C(=NOC(C)=O)c2ccccc2F)c(O)c1Cl`, 125 to 128 °C. The molecule `O=C(O)CCCCn1ccc2cc([N+](=O)[O-])ccc21` returned a melting point of 141 to 142 °C. The result for `COc1ccc2[nH]cc(C#N)c2c1` reads 147 °C. With `NC(=O)c1c(C(F)(F)F)nn(-c2c(Cl)cc(C(F)(F)F)cc2Cl)c1N` the figure was 169 to 171 °C; with `COC(=O)[C@@H](NC(=O)Nc1n[nH]c(=S)s1)c1ccccc1`, 137 to 139 °C; with `CCOC(=O)c1cc2cc([Si](C)(C)C)ccc2[nH]1`, 114 to 115 °C. In turn, `CC(C)N1CCC(N2CCN(CCCN3CCOCC3)C2=C(C#N)C#N)CC1` displayed a melting point of 109 to 110 °C. `CN1Cc2ccccc2C(=O)c2cc(CC(=O)O)ccc21` came in with a melting point of 194 to 196 °C.

In turn, `COC1C=C(C)C(=O)CC(C)(C)C1OC(=O)c1ccc(N)cc1N` (stereo not given) gave a melting point of 178 to 179 °C. With `O=C(O)Cc1c(C(=O)c2cc(CO)ccn2)[nH]c2ccc(Cl)cc12` the figure was 218 to 219 °C; with `CNC(=O)c1cc2c(nc(C)n2C)c2c1CCC(c1ccccc1)O2` (stereo not given), 291 to 292 °C; with `O=C1NC(=O)C(c2ccc(Br)s2)O1` (stereo not given), 139 to 140 °C. `COc1ccc2c(-c3ccccc3)c(C(=O)c3ccccc3)sc2c1`: the melting point is 94 to 95.5 °C. In turn, `O=c1[nH]c2ccccc2c(=O)n1CCS` returned a melting point of 193 to 195 °C. Turning to `CCOC(=O)COc1ccc2cc(S(N)(=O)=O)sc2c1`, the melting point was in the range of 182 to 184 °C. With `CN(C)c1ccc(-c2nc(Cl)c3ccccc3n2)cc1` the figure was 167 to 170 °C; with `Cc1ccc(C)c(OCc2ccccc2/C(=N\O)C(N)=O)c1`, 166 to 168 °C. In turn, `CCOC(=O)c1cccc(NC(=O)NCC(=O)N2[C@@H](c3ccccc3)SC[C@H]2C(=O)OC(C)(C)C)c1` registered a melting point of 85 °C.

In turn, `CN(C#N)C(=O)CCCCC(=O)N(C)C#N` displayed a melting point of 86.1 to 87.8 °C. In turn, `COc1ccc(N2CCOCC2)c2sc(C(=O)NCC(=O)c3ccccc3)nc12` displayed a melting point of 165 °C. With `CCCC1(CCC)c2cc(Br)ccc2-c2cc(OC)c(Br)cc21`, the melting point fell in the range of 127 to 132 °C. Molecule `CC(C(O)c1ccc2c(c1)CCCS2)N1CCC(n2c(=O)[nH]c3ccccc32)CC1` (stereo not given) came in with a melting point of 232 to 235 °C.

In turn, `N#CC1=C(Nc2cccc(Cl)c2)CCC1` came in with a melting point of 111 to 112 °C. The result for `O=C(NC(c1ccccc1)c1ccccc1)N1CCC(c2ccccc2)(c2ccccc2)CC1` reads 232 to 234 °C. `Cc1c(-c2ccccc2)sc2c(Cl)c(Cl)c(OCC(=O)O)cc12` came in with a melting point of 232 to 233 °C. `Nc1cccc2c1NC(=O)C2`: the melting point is 248 to 251 °C.

As for `COC(=O)NN=C1CCc2ccccc21`, the melting point was in the range of 155 to 156 °C. With `CC1(C)OC(=O)Nc2c(Br)cc(-c3ccc(F)c(Cl)c3)cc21` the figure was 194 to 195 °C. In turn, `COC(=O)[C@@H]1C[C@H](C(=O)OC(C)(C)C)N(C(=O)CNC(=O)Nc2ccc(Cl)cc2)[C@@H]1c1ccccc1` (racemic) returned a melting point of 125 °C. The result for `CC(=O)NN1CC(C)=NNC1=O` reads 197 to 199 °C; that for `N#Cc1ccccc1-c1ccc(CN=[N+]=[N-])cc1`, 69 to 70 °C; that for `C[Si](C)(c1ccccc1)c1ccccc1CO`, 53 to 54 °C. Regarding `COc1ccccc1Oc1c(Cl)ncnc1NS(=O)(=O)c1ccc(C(C)(C)C)cc1`, the melting point amounted to 152 °C. Molecule `CCOc1nn(Cc2ccc(OC3CCN(c4ccccn4)CC3)cc2)cc1CCC(=O)O` returned a melting point of 142 to 143 °C. The result for `CCCCCCCCc1ccc(OCC(=O)Cn2c(C(=O)O)cc3ccccc32)cc1` reads 173 °C; that for `Cc1ccc(-c2c(Cl)ncnc2NS(=O)(=O)c2ccc(C(C)(C)COC3CCCCO3)cc2)cc1` (stereo not given), 141 to 144 °C; that for `O=[N+]([O-])c1ccc(-n2cncn2)cc1`, 198 °C. The molecule `Cn1cc(C2=C(c3c4n(c5ccccc35)C[C@@H]3CN(C(=O)OC(C)(C)C)C[C@@H]3C4)C(=O)NC2=O)c2ccccc21` (relative stereo) came in with a melting point of 173 to 175 °C. With `CC12CCC(O)C(O)C1=CCC1C2CCC2(C)C(O)C(O)CC12` (stereo not given) the figure was 238 to 241 °C; with `O=C(CCCCCl)Nc1nnc(SCc2ccccc2)s1`, 145 to 148 °C; with `CCC(=O)N1CCC(=O)c2cc(Cl)c(Cl)cc21`, 135 to 137 °C. The result for `Cc1oc(-c2ccccc2)nc1COc1ccc(COc2cncc(CC#N)c2)cc1` reads 137 to 138 °C.
